Test results from ChEMBL document CHEMBL4007451, “The 2014 Philip S. Portoghese Medicinal Chemistry Lectureship: The "Phenylalkylaminome" with a Focus on Selected Drugs of Abuse” (J Med Chem, 2017).

Key:
Rattus norvegicus [1] = organism: Rattus norvegicus; assay: Induction of stimulus generalization in rat trained to discriminate S(+)methamphetamine assessed as appropriate responding level to training drug by two lever method; type: functional
Rattus norvegicus [2] = organism: Rattus norvegicus; assay: Induction of stimulus generalization in rat trained to discriminate (-)ephedrine assessed as appropriate responding level to training drug by two lever method; type: functional
[3] = biological target: Sodium-dependent serotonin transporter (Rattus norvegicus, UniProt P31652); assay: Activity at SERT in rat synaptosomes assessed as release of [3H]HT after 5 mins by liquid scintillation counting method; type: subcellular
Rattus norvegicus [4] = organism: Rattus norvegicus; assay: Induction of stimulus generalization in rat trained to discriminate PMMA assessed as appropriate responding level to training drug by two lever method; type: functional; conditions: for ED50: Rattus norvegicus
[5] = biological target: Sodium-dependent dopamine transporter (Rattus norvegicus, UniProt P23977); assay: Activity at DAT in rat synaptosomes assessed as release of [3H]DA after 5 mins by liquid scintillation counting method; type: subcellular
[6] = Activity at NET in rat synaptosomes assessed as release of [3H]NE after 30 mins by liquid scintillation counting method; type: subcellular
Rattus norvegicus [7] = organism: Rattus norvegicus; assay: Induction of stimulus generalization in Sprague-Dawley rat trained to discriminate S(+)AMPH assessed as appropriate responding level to training drug by two lever method; type: functional
Rattus norvegicus [8] = organism: Rattus norvegicus; assay: Induction of stimulus generalization in Sprague-Dawley rat trained to discriminate S(-)MCAT assessed as appropriate responding level to training drug by two lever method; type: functional
[9] = biological target: T1, 5-hydroxytryptamine receptor 1A (Rattus norvegicus, UniProt P19327); assay: Displacement of [3H]-8-OH-DPAT from 5-HT1A receptor in Sprague-Dawley rat cortex membranes after 15 mins by liquid scintillation spectrometric method; type: cell membranes
T1 sequence (P19327 whole entry): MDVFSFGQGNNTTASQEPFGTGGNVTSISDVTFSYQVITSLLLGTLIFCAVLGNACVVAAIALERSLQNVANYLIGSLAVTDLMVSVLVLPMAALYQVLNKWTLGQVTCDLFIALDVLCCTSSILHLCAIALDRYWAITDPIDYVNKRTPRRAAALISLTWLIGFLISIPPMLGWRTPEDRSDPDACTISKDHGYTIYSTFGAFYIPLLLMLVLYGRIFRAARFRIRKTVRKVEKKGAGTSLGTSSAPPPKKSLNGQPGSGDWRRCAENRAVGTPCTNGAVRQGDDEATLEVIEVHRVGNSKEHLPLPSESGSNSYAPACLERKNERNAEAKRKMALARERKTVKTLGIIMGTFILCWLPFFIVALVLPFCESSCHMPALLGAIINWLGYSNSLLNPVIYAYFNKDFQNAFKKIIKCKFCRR

Rattus norvegicus [10] = organism: Rattus norvegicus; assay: Induction of stimulus generalization in rat trained to discriminate MDMA assessed as appropriate responding level to training drug by two lever method; type: functional
[11] = Displacement of [3H]ketanserin from rat brain 5HT2 receptor
Rattus norvegicus [12] = organism: Rattus norvegicus; assay: Induction of stimulus generalization in rat trained to discriminate DOM assessed as appropriate responding level to training drug by two lever method; type: functional
[13] = biological target: T2, 5-hydroxytryptamine receptor 2A (Rattus norvegicus, UniProt P14842); assay: Displacement of [3H]DOB from 5HT2A in Sprague-Dawley rat cortex membranes measured after 15 mins by scintillation counting method; type: cell membranes
[14] = Displacement of [3H]DTG from sigma receptor (unknown origin); set-up: species or system Homo sapiens
[15] = biological target: Sigma non-opioid intracellular receptor 1 (Cavia porcellus, UniProt Q60492); assay: Displacement of (+)-[3H]pentazocine from guinea pig brain membrane sigma1 receptor by scintillation spectrometric method
Rattus norvegicus [16] = organism: Rattus norvegicus; assay: Induction of stimulus generalization in rat trained to discriminate (+)amphetamine assessed as appropriate responding level to training drug by two lever method; type: functional
[17] = biological target: 5-hydroxytryptamine receptor 2A (Homo sapiens, UniProt P28223); assay: Displacement of [125I]DOI from recombinant human 5HT2A expressed in Syrian hamster AV12 cell membranes
Rattus norvegicus [18] = organism: Rattus norvegicus; assay: Induction of stimulus generalization in Sprague-Dawley rat trained to discriminate rac-cathinone assessed as appropriate responding level to training drug by two lever method; type: functional
[19] = biological target: T2, 5-hydroxytryptamine receptor 2A; assay: Displacement of [125I](+/-)DOI from rat 5HT2A after 1 hr by beta scintillation counting method
Rattus norvegicus [20] = organism: Rattus norvegicus; assay: Induction of stimulus generalization in Sprague-Dawley rat trained to discriminate AMPH assessed as appropriate responding level to training drug by two lever method; type: functional
Rattus norvegicus [21] = organism: Rattus norvegicus; assay: Induction of stimulus generalization in Sprague-Dawley rat trained to discriminate DOM assessed as appropriate responding level to training drug by two lever method; type: functional; conditions: Rattus norvegicus, Sprague-Dawley
Rattus norvegicus [22] = organism: Rattus norvegicus; assay: Induction of stimulus generalization in Sprague-Dawley rat trained to discriminate PMMA assessed as appropriate responding level to training drug by two lever method; type: functional
Rattus norvegicus [23] = organism: Rattus norvegicus; assay: Induction of stimulus generalization in Sprague-Dawley rat trained to discriminate MDMA assessed as appropriate responding level to training drug by two lever method; type: functional; conditions: Rattus norvegicus, Sprague-Dawley
Rattus norvegicus [24] = organism: Rattus norvegicus; assay: Induction of stimulus generalization in Sprague-Dawley rat trained to discriminate alpha-ET assessed as appropriate responding level to training drug by two lever method; type: functional; conditions: Rattus norvegicus, Sprague-Dawley
[25] = biological target: T2, 5-hydroxytryptamine receptor 2A; assay: Displacement of [3H]ketanserin from 5HT2A in Sprague-Dawley rat frontal cortex membranes measured after 15 mins by scintillation counting method; set-up: species or system Membrane
Homo sapiens = organism: Homo sapiens; assay: Selectivity ratio of EC50 for SERT (unknown origin) assessed as release of [3H]HT to EC50 for DAT (unknown origin) by [3H]DA release assay
[26] = biological target: Sodium-dependent serotonin transporter (Homo sapiens, UniProt P31645); assay: Activity at SERT (unknown origin) assessed as release of [3H]HT
[27] = biological target: Sodium-dependent dopamine transporter (Homo sapiens, UniProt Q01959); assay: Activity at DAT (unknown origin) assessed as release of [3H]DA
Sodium-dependent dopamine transporter (Homo sapiens, UniProt Q01959), sequence (Q01959 whole entry): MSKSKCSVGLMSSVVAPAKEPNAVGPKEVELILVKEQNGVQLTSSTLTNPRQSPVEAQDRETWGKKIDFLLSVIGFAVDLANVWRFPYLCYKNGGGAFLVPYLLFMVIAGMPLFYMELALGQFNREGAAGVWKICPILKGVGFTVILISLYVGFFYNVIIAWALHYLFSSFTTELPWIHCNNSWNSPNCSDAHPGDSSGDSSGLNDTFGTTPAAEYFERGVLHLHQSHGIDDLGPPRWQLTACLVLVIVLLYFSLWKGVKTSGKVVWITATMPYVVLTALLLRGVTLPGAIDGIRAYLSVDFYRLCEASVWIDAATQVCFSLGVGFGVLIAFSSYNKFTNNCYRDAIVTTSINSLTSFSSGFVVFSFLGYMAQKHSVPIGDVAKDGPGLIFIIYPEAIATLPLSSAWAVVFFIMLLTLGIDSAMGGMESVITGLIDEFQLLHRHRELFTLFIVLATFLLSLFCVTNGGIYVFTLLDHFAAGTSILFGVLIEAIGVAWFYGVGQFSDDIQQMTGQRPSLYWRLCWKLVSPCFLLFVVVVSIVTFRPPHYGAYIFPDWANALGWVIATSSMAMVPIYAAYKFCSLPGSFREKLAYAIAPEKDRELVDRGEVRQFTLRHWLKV

T2 sequence (P14842 whole entry): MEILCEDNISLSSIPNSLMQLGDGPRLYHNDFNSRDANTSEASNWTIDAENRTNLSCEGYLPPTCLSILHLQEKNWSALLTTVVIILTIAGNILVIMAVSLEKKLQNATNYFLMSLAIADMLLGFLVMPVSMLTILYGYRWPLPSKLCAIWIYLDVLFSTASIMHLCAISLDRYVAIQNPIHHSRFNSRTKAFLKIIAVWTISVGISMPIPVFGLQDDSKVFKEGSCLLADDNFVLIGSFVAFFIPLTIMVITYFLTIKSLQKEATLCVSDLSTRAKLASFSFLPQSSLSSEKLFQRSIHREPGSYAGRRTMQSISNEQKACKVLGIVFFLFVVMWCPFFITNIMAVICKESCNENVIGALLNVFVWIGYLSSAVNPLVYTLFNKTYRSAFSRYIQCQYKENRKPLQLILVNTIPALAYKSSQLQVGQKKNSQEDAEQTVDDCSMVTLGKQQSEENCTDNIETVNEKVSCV
Sigma non-opioid intracellular receptor 1, sequence (Q60492 whole entry): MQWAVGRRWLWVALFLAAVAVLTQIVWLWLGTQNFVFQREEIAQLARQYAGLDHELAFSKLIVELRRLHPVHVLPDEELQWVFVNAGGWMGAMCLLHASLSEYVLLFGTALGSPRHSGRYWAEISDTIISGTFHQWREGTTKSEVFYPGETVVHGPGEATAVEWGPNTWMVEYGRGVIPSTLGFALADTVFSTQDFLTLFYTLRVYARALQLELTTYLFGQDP
Sodium-dependent dopamine transporter (Rattus norvegicus, UniProt P23977), sequence (P23977 whole entry): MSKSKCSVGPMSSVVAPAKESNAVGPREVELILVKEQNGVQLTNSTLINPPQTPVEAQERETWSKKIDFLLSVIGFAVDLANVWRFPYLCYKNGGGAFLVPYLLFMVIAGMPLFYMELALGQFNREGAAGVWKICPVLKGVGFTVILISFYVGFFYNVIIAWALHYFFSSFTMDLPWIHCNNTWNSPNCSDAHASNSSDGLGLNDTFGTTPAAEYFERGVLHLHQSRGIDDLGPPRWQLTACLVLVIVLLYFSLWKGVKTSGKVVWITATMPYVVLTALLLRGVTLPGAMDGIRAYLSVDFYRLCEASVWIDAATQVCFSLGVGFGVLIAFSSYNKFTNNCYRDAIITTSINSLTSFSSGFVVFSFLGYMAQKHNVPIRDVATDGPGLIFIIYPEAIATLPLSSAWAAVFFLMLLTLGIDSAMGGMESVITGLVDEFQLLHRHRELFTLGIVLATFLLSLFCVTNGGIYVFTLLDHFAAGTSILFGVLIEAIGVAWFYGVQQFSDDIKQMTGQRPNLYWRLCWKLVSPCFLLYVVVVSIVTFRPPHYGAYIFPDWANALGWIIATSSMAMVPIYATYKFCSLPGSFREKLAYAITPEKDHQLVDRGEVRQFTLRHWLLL
Sodium-dependent serotonin transporter (Rattus norvegicus, UniProt P31652), sequence (P31652 whole entry): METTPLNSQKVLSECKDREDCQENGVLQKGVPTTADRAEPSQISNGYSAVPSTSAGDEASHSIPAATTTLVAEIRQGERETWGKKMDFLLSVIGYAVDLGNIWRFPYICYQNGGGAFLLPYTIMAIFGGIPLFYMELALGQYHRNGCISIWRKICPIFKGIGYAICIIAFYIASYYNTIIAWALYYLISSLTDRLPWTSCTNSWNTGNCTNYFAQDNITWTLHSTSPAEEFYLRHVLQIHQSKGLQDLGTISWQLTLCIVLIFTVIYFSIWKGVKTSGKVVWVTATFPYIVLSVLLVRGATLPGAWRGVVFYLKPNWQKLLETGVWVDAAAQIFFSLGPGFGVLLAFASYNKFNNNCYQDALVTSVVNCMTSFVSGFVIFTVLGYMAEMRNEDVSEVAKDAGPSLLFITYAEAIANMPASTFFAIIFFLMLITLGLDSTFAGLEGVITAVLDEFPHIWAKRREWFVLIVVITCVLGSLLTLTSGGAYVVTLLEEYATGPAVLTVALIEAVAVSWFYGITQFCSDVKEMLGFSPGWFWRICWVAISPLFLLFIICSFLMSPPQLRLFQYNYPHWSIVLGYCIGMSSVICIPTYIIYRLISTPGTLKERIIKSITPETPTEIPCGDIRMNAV
5-hydroxytryptamine receptor 2A (Homo sapiens, UniProt P28223), sequence (P28223 whole entry): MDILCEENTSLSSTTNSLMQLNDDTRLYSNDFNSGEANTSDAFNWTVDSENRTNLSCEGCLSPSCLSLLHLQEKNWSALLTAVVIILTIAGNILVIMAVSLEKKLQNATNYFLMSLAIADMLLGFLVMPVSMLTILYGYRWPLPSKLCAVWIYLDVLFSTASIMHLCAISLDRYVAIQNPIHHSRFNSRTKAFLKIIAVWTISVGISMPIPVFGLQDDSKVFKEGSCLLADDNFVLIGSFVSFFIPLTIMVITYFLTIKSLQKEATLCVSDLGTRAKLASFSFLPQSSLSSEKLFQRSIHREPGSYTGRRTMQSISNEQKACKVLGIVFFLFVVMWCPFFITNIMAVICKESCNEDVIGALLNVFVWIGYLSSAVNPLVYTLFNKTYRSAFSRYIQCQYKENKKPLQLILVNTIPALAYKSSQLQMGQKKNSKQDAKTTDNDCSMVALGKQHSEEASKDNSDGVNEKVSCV
Sodium-dependent serotonin transporter (Homo sapiens, UniProt P31645), sequence (P31645 whole entry): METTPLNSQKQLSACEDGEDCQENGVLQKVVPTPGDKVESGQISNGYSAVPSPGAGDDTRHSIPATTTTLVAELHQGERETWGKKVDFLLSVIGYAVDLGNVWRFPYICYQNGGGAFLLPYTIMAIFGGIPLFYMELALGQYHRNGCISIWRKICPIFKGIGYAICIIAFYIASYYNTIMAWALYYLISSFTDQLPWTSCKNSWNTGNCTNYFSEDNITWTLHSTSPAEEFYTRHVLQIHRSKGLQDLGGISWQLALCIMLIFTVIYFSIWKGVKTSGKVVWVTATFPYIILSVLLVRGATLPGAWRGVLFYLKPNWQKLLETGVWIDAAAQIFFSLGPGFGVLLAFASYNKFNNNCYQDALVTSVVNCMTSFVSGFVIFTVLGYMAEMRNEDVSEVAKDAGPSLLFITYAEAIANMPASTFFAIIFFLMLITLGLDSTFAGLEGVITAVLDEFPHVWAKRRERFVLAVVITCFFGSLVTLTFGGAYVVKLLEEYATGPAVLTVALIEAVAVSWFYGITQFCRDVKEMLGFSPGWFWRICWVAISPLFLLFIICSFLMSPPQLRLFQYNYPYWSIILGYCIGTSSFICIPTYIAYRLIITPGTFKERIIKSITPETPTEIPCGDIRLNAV

CN[C@H](C)Cc1ccccc1
ED50 (Rattus norvegicus [1]): 1.61 mg/kg
ED50 (Rattus norvegicus [2]): 0.9 mg/kg

C[C@@H](N)Cc1ccc2c(c1)OCO2
EC50 [3]: 310 nM
ED50 (Rattus norvegicus [4]): 1.5 mg/kg
EC50 [5]: 900 nM
EC50 [6]: 290 nM

CC(N)Cc1ccc2c(c1)OCO2 (racemic) [TENAMFETAMINE]
EC50 [3]: 160 nM
ED50 (Rattus norvegicus [4]): 0.5 mg/kg
EC50 [5]: 190 nM
EC50 [6]: 108 nM

CN[C@@H](C)Cc1ccccc1 [METHAMPHETAMINE]
ED50 (Rattus norvegicus [7]): 0.2 mg/kg
ED50 (Rattus norvegicus [8]): 0.17 mg/kg
ED50 (Rattus norvegicus [1]): 0.06 mg/kg

CN(C)[C@@H]1CCc2cccc(O)c2C1
Ki [9]: 75 nM

COc1ccc(C[C@H](C)N)cc1
Activity (Rattus norvegicus [4]): 20 - 80%
Activity (Rattus norvegicus [10]): 20 - 80%

C[C@H](N)Cc1c[nH]c2ccccc12
Ki [11]: 2500 nM
ED50 (Rattus norvegicus [12]): 1.64 mg/kg

COc1cccc(C[C@@H](C)N)c1
Activity (Rattus norvegicus [4]): 20 - 80%
ED50 (Rattus norvegicus [10]; Rattus norvegicus): 1.4 mg/kg

COc1cc(CC(C)N)c(OC)cc1I (stereo not given)
Ki [13]: 0.7 nM

C=CCN1CC[C@]2(C)c3cc(O)ccc3C[C@H]1[C@H]2C
Ki [14]: 150 nM

COc1ccc(OC)c(CC(C)N)c1 (stereo not given)
Ki [13]: 268 nM

CC1CCN(CCCCCc2ccccc2)CC1
Ki [15]: 0.07 nM

CCNC(C)Cc1cccc(C(F)(F)F)c1 (stereo not given) [FENFLURAMINE]
EC50 [6]: 740 nM

CC(N)C(=O)c1ccccc1 (racemic) [DEALKYLATED DIETHYLPROPION]
ED50 (Rattus norvegicus [16]): 0.72 mg/kg

COc1cc(OC)c(OC)cc1CC(C)N (stereo not given)
Ki [13]: 81 nM
Ki [17]: 57.9 nM

CN[C@@H](C)[C@H](O)c1ccccc1 [EPHEDRINE]
ED50 (Rattus norvegicus [1]): 13.1 mg/kg
ED50 (Rattus norvegicus [2]): 0.8 mg/kg

CN[C@@H](C)C(=O)c1ccccc1
EC50 [3]: 1770 nM
ED50 (Rattus norvegicus [7]): 0.18 mg/kg
EC50 [5]: 14.8 nM
EC50 [6]: 13.1 nM
ED50 (Rattus norvegicus [8]): 0.11 mg/kg
ED50 (Rattus norvegicus [1]): 0.21 mg/kg

c1ccc(CCCCCN2CCCCC2)cc1
Ki [15]: 0.38 nM

C[C@H](N)C(=O)c1ccccc1 [CATHINONE]
ED50 (Rattus norvegicus [7]): 0.34 mg/kg
ED50 (Rattus norvegicus [18]): 0.22 mg/kg
ED50 (Rattus norvegicus [8]): 0.17 mg/kg
ED50 (Rattus norvegicus [16]): 0.32 mg/kg

CC(Cc1ccccc1)NCCCCCc1ccccc1 (stereo not given)
Ki [14]: 6.3 nM

c1ccc(CCCCCN2CCCC(c3ccccc3)C2)cc1 (stereo not given)
Ki [15]: 0.14 nM

COc1cc([C@@H](OC)[C@H](C)N)c(OC)cc1Br
Ki [19]: 0.8 nM

COc1cc([C@H](OC)[C@@H](C)N)c(OC)cc1Br
Ki [19]: 17.4 nM

CC[C@H](N)Cc1c[nH]c2ccccc12
EC50 [3]: 20 nM
Activity (Rattus norvegicus [20]): 53%
EC50 [5]: 64 nM
ED50 (Rattus norvegicus [21]): 2.7 mg/kg
EC50 [6]: > 10000 nM
ED50 (Rattus norvegicus [22]): 1.4 mg/kg
ED50 (Rattus norvegicus [23]): 2 mg/kg
ED50 (Rattus norvegicus [24]): 1.3 mg/kg

CN[C@@H](C)Cc1ccc2c(c1)OCO2
EC50 [3]: 74 nM
ED50 (Rattus norvegicus [4]): 0.48 mg/kg
EC50 [5]: 142 nM
EC50 [6]: 136 nM
Ki [25]: 15800 nM

CNC(C)C(=O)c1ccc(C(F)(F)F)cc1 (stereo not given)
Ratio EC50 (Homo sapiens): 14
EC50 [26]: 190 nM
EC50 [27]: 2700 nM

CCCNC(C)Cc1cc(OC)c(Br)cc1OC (stereo not given)
Ki [17]: 88.5 nM

COc1cc(CC(C)N)c(OC)cc1C (stereo not given) [DOM]
ED50 (Rattus norvegicus [21]): 0.4 mg/kg
ED50 (Rattus norvegicus [12]): 0.44 mg/kg
ED50 (Rattus norvegicus [24]): 0.4 mg/kg
